Columns and labels:
[1] = test system: EGF receptor tyrosine kinase; settings: Fry et al., Science, 1994, 265, 1093; cited from earlier work
[2] = biological target: T1, EGF receptor tyrosine kinase (Homo sapiens, UniProt P00533); assay: in vitro inhibition of the enzyme EGF receptor tyrosine kinase (Test (a)); type: biochemical; settings: receptor tyrosine kinase from A-431 cells
T1 construct: Receptor tyrosine kinase was obtained in partially purified form from A-431 cells; endogenous in cells; host or cells: A-431 cells (human vulval carcinoma), Triton X-100 solubilised membrane fraction
T1 sequence (P00533 25-1210): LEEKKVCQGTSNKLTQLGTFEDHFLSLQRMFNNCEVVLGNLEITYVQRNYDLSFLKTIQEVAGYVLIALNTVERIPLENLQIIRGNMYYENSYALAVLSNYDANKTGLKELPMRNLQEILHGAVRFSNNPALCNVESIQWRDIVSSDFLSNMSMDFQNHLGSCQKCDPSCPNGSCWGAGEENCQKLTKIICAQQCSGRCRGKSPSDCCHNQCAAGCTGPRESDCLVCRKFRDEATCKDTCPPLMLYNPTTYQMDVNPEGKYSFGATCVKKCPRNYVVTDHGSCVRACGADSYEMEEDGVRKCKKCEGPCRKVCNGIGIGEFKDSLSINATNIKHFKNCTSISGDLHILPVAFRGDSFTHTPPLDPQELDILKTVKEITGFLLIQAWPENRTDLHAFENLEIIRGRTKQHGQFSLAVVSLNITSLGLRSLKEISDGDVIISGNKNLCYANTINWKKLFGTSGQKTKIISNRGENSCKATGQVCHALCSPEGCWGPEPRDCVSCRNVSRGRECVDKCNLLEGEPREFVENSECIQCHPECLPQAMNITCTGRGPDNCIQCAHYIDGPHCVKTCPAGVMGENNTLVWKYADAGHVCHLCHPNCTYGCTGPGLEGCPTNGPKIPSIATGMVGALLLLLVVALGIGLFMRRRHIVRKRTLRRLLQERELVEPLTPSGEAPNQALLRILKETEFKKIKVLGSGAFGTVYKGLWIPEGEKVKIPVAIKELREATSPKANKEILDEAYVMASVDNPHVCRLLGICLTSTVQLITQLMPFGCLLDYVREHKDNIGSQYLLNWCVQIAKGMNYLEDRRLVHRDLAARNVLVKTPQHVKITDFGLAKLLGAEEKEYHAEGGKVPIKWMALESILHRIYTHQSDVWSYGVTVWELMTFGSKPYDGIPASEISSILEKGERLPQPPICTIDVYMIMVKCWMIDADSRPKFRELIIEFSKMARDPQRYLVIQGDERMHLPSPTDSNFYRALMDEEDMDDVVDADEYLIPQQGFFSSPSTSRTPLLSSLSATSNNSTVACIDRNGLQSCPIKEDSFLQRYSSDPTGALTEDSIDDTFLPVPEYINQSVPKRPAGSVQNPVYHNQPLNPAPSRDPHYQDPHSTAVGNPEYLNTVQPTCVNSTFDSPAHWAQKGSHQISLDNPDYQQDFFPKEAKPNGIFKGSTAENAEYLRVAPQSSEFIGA
T1 sequence (P01133 971-1023 partner limits assumed): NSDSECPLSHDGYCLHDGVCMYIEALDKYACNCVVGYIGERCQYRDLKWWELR
Description: (a) An in vitro assay which determines the ability of a test compound to inhibit the enzyme EGF receptor tyrosine kinase. Receptor tyrosine kinase was obtained in partially purified form from A-431 cells (derived from human vulval carcinoma) by the procedures described below which are related to those described by Carpenter et al., J. Biol. Chem., 1979, 254, 4884, Cohen et al., J. Biol. Chem., 1982, 257, 1523 and by Braun et al., J. Biol. Chem., 1984, 259, 2051.
A-431 cells were grown to confluence using Dulbecco's modified Eagle's medium DMEM) containing 5% fetal calf serum (FCS). The obtained cells were homogenised in a hypotonic borate/EDTA buffer at pH 10.1. The homogenate was centrifuged at 400 g for 10 minutes at 0°-4° C. The supernatant was centrifuged at 25,000 g for 30 minutes at 0°-4° C. […]
The test compound/EGF mixture solution (5 μl) was added to the test enzyme solution (10 μl) and the mixture was incubated at 0°-4° C. for 30 minutes. […] Radioactivity present in the filter paper was measured using a liquid scintillation counter (Sequence A). […]
Receptor tyrosine kinase inhibition was calculated as follows: [formula]
The extent of inhibition was then determined at a range of concentrations of test compound to give an IC50 value.

[3] = test system: human naso-pharyngeal cancer cell line KB; assay: in vitro inhibition of EGF-stimulated growth of human naso-pharyngeal cancer cell line KB (Test (b)); type: cell-based; settings: 72 h, EGF 10 ng/ml, 3 days, MTT, read-out: IC50 in Test (b), inhibition of EGF-stimulated growth of KB cells
Description: (b) An in vitro assay which determines the ability of a test compound to inhibit the EGF-stimulated growth of the human naso-pharyngeal cancer cell line KB.
KB cells were seeded into wells at a density of 1×10^4 -1.5×10^4 cells per well and grown for 24 hours in DMEM supplemented with 5% FCS (charcoal-stripped). Cell growth was determined after incubation for 3 days by the extent of metabolism of MTT tetrazolium dye to furnish a bluish colour. Cell growth was then determined in the presence of EGF (10 ng/ml) or in the presence of EGF (10 ng/ml) and a test compound at a range of concentrations. An IC50 value could then be calculated.

[4] = test system: human mammary carcinoma which expresses EGF receptor tyrosine kinase; settings: athymic nude mice; cited from earlier work
[5] = test system: another carcinoma which does not express EGF receptor tyrosine kinase; settings: cited from earlier work

Question: With `COc1cc2ncnc(Nc3cccc(Br)c3)c2cc1OC` [4-(3-bromoanilino)-6,7-dimethoxyquinazoline] as the compound, how does the “inhibition of EGF receptor tyrosine kinase (in words)” value [1] read?
Answer: Its value is “highly potent inhibitor”.

Question: For `Fc1ccc(Nc2ncnc3cc(-c4csc(CN5CCOCC5)c4)ccc23)cc1Cl` [Example 5, 4-(3-chloro-4-fluoroanilino)-7-(5-morpholinomethylthien-3-yl)quinazoline], which IC50 [2] is on record?
Answer: Its IC50 is 42 nM.

Question: And the IC50 [3]?
Answer: The IC50 was 120 nM.

Question: Which “attenuation of growth of a transplanted human mammary carcinoma” value [4] does the source give for `O=CN/C=C/c1cc(O)ccc1O` [erbstatin] here?
Answer: Its value is “specifically attenuates the growth”.

Question: What about the “effect on the growth of another carcinoma” value [5] of the same compound?
Answer: The value was “without effect”.
